Our source for the TGI values is PubChem BioAssay (NCI).

Structures are written as SMILES.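 A five-concentration, 48-hour dose response in 96-well plates underlies each endpoint, interpolated linearly between surrounding concentrations. TGI is the concentration that stops growth completely.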

Among the test systems are A498 renal; BT-549 breast; DU-145 prostate; HCT-116 colon; MDA-MB-231 breast; MDA-MB-435; MDA-N; NCI-H23 lung; NCI-H460 lung; NCI/ADR-RES ovarian; OVCAR-3 ovarian; SR leukemia; UO-31 renal; DLD-1 colon; LOX IMVI melanoma; MOLT-4 leukemia; UACC-257 melanoma; XF 498 CNS; EKVX NSCLC; HOP-92 NSCLC.
Common to all, as to test: NCI-60 cell line screen, 48 h

As for `CN(C)c1ccc(N2C(=S)SC(=Nc3ccccc3)C2=Nc2ccccc2)cc1`, the TGI in the assay on A498 renal, with BT-549 breast, with DU-145 prostate, in the assay on HCT-116 colon, with MDA-MB-231 breast and with MDA-MB-435 was more than 100 µM each time. The TGI in the assay on MDA-N, in the assay with NCI-H23 lung, in the assay with NCI-H460 lung, in the assay with NCI/ADR-RES ovarian, in the assay on OVCAR-3 ovarian and in the assay on SR leukemia was more than 100 µM each time. In the assay on UO-31 renal, this compound gave a TGI of more than 100 µM.
On to `CC1(C)OP23(NC(=O)OC2(C(F)(F)F)c2ccccc2O3)OC1(C)C` (stereo not given), for which the TGI with DLD-1 colon, with HCT-116 colon, with LOX IMVI melanoma, with MOLT-4 leukemia, with NCI-H23 lung and in the assay on NCI-H460 lung was more than 100 µM each time. Besides, the TGI with OVCAR-3 ovarian, in the assay on UACC-257 melanoma, with UO-31 renal and in the assay on XF 498 CNS was more than 100 µM in each case.
For `COc1ccc2[nH]c(C(=O)N3CC(CCl)c4ccc(N)cc43)cc2c1` (stereo not given), the TGI in the assay with BT-549 breast is 6.97 µM; with EKVX NSCLC, 2.78 µM; with HOP-92 NSCLC, more than 100 µM; in the assay on LOX IMVI melanoma, 0.601 µM; in the assay with MDA-MB-231 breast it was 0.545 µM; with MDA-MB-435, 0.405 µM. Moreover, the TGI in the assay with MDA-N is 0.347 µM; in the assay with MOLT-4 leukemia, more than 100 µM; in the assay with NCI-H23 lung, 0.501 µM; in the assay with NCI-H460 lung it was 3.24 µM; in the assay with NCI/ADR-RES ovarian, 2.28 µM; with SR leukemia it was more than 100 µM.
In the case of `COC(=O)/C=C\Sc1ccn(/C=C\C(=O)OC)c(=S)n1`, the TGI in the assay on A498 renal is 35.6 µM; in the assay on BT-549 breast it was 44.9 µM; with DU-145 prostate it was more than 100 µM; in the assay on EKVX NSCLC, 68.2 µM; in the assay with HOP-92 NSCLC it was 47.7 µM; in the assay on LOX IMVI melanoma, 9.35 µM. Moreover, the TGI in the assay with MDA-MB-231 breast is 56.7 µM; in the assay with MDA-MB-435 it was 86.6 µM; with MDA-N, more than 100 µM; with NCI-H23 lung, 64.3 µM; in the assay on NCI/ADR-RES ovarian it was 40.7 µM; in the assay on OVCAR-3 ovarian, 26.7 µM. Moreover, the results for the TGI in the assay on SR leukemia, with UACC-257 melanoma and with UO-31 renal were 38.8 µM, more than 100 µM and 50.5 µM, respectively.
With `N/N=C(\C(=O)Nc1c(Cl)cc([N+](=O)[O-])cc1Cl)C(c1cnc2ccc([N+](=O)[O-])cc2n1)[N+](=O)[O-]` (stereo not given), the TGI in the assay with A498 renal, in the assay on DLD-1 colon, with EKVX NSCLC, in the assay with HCT-116 colon, with HOP-92 NSCLC and in the assay on LOX IMVI melanoma was more than 100 µM in each case. Moreover, the TGI in the assay with MOLT-4 leukemia, with NCI-H23 lung, in the assay on NCI-H460 lung, with SR leukemia, in the assay on UACC-257 melanoma and with UO-31 renal was more than 100 µM throughout. The TGI in the assay with XF 498 CNS was more than 100 µM.
As to `O=C(CCCn1cnc([N+](=O)[O-])n1)NCCn1ccnc1[N+](=O)[O-]`, the TGI in the assay on BT-549 breast, in the assay on DU-145 prostate, in the assay on EKVX NSCLC, in the assay on HOP-92 NSCLC, with LOX IMVI melanoma and in the assay with MDA-N was more than 100 µM in each case. Besides, the TGI in the assay on MOLT-4 leukemia, with NCI-H23 lung, in the assay with NCI-H460 lung, in the assay on OVCAR-3 ovarian, in the assay on SR leukemia and in the assay on UACC-257 melanoma was more than 100 µM each time. The compound further yielded a TGI in the assay with UO-31 renal of more than 100 µM.
`O=C(Nc1ccccc1F)c1c(O)nc2sccn2c1=O`: the TGI in the assay on A498 renal, in the assay with DU-145 prostate, with EKVX NSCLC, with HCT-116 colon, in the assay on LOX IMVI melanoma and with MDA-MB-231 breast was more than 10 µM in each case. For the same compound, the TGI in the assay with MDA-MB-435, in the assay with MDA-N, in the assay with MOLT-4 leukemia, in the assay on NCI-H23 lung, in the assay on NCI-H460 lung and in the assay with NCI/ADR-RES ovarian was more than 10 µM each time. Further, the TGI with OVCAR-3 ovarian, with SR leukemia and with UO-31 renal was more than 10 µM each time.
For the compound `CC(=O)OC(Cc1cc(C=C(C(F)(F)F)C(F)(F)F)cc(C)n1)(C(F)(F)F)C(F)(F)F`, the TGI in the assay on A498 renal was determined as 3.3 µM; with BT-549 breast, 4.96 µM; in the assay on DU-145 prostate, 6.84 µM; with EKVX NSCLC, 5.87 µM; in the assay with HCT-116 colon, 2.91 µM; in the assay on HOP-92 NSCLC, 2.32 µM. For the same compound, the TGI in the assay with LOX IMVI melanoma was 3.49 µM; with MDA-MB-231 breast, 4.65 µM; in the assay on MDA-MB-435, 2.83 µM; in the assay on NCI-H23 lung, 3.32 µM; in the assay on NCI-H460 lung it was 5.09 µM; in the assay on NCI/ADR-RES ovarian it was more than 100 µM. Also, the TGI in the assay on OVCAR-3 ovarian came out at 3.57 µM; in the assay with UO-31 renal, 3.08 µM.
